Where “and” joins values, the source holds several entries; their conditions need not be identical. Identical values can stand only once.
How the values were obtained:
[1] = Pain during blue light illumination (0 to 10 VAS); format: in vivo, human; settings: for Pain score (0-to-10 VAS) during illumination / Pain score (0-to-10 VAS) during illumination, Mean: individual patients; for Pain score (0-to-10 VAS) during illumination, Mean: mean over time points; for Mean VAS pain score during illumination: all 23 patients, linear mixed-effect model, 0-10 scale
Experimental: The term “Visual Analogue Scale for Pain (referred to as VAS pain score hereafter) as used herein, is defined as follows: An 11-point numerical pain scale wherein patients report a number (from 0 to 10) that most closely reflects the level of pain they are experiencing at that particular moment; 0 corresponds to no pain and 10 corresponds to the worst pain imaginable (Breivik, HaraldScandinavian Journal of Pain 2016; 11:150-152).
(§1) Several secondary endpoints were also measured. For pain assessment, patients were asked every 5 to 10 min during illumination to report their pain on a 0 to 10 visual-analog (VAS) scale. Erythema was recorded photographically at Day 1 and on Day 4 post PDT. A side effect profile was recorded by each patient in a daily home questionnaire to document the presence or absence of eleven different signs and symptoms in the 4 days immediately following PDT (see Table 2).
The primary endpoint was AK lesion reduction. […] Statistical significance was considered with a p-value <0.05.

[2] = Daily home questionnaire of side effects, first 4 days after PDT; format: in vivo, human; settings: Side A (test PDT); for Pain Score Mean (0-10 visual-analog scale): average of 23 patients
Experimental: as §1

NCC(=O)CCC(=O)O [ALA, 5-aminolevulinic acid]
Pain score (0-to-10 VAS) during illumination ([1]; SIDE A (test PDT), 10 min during illumination, 30 min test PDT cohort): 0 (3×) and 2 and 3 and 1
Pain score (0-to-10 VAS) during illumination ([1]; SIDE A (test PDT), 10 min during illumination, 45 min test PDT cohort): 0 (5×) and 1 (3×)
Pain score (0-to-10 VAS) during illumination ([1]; SIDE A (test PDT), 10 min during illumination, 60 min test PDT cohort): 0
Pain score (0-to-10 VAS) during illumination ([1]; SIDE A (test PDT), 20 min during illumination, 30 min test PDT cohort): 0 (2×) and 2 and 5 and 1 (2×)
Pain score (0-to-10 VAS) during illumination ([1]; SIDE A (test PDT), 20 min during illumination, 45 min test PDT cohort): 0 (6×) and 1 (2×)
Pain score (0-to-10 VAS) during illumination ([1]; SIDE A (test PDT), 20 min during illumination, 60 min test PDT cohort): 0
Pain score (0-to-10 VAS) during illumination ([1]; SIDE A (test PDT), 30 min during illumination, 30 min test PDT cohort): 0 (2×) and 2 and 6 and 1 (2×)
Pain score (0-to-10 VAS) during illumination ([1]; SIDE A (test PDT), 30 min during illumination, 45 min test PDT cohort): 0 (7×) and 1
Pain score (0-to-10 VAS) during illumination ([1]; SIDE A (test PDT), 30 min during illumination, 60 min test PDT cohort): 0
Pain score (0-to-10 VAS) during illumination ([1]; SIDE A (test PDT), 40 min during illumination, 45 min test PDT cohort): 0 (6×) and 1 (2×)
Pain score (0-to-10 VAS) during illumination ([1]; SIDE A (test PDT), 40 min during illumination, 60 min test PDT cohort): 0
Pain score (0-to-10 VAS) during illumination ([1]; SIDE A (test PDT), 50 min during illumination): 0
Pain score (0-to-10 VAS) during illumination, Mean ([1]; SIDE A (test PDT), 30 min test PDT cohort): 0.0 (3×) and 2.0 and 4.7 and 0.7 and 1.0
Pain score (0-to-10 VAS) during illumination, Mean ([1]; SIDE A (test PDT), 45 min test PDT cohort): 0.0 (4×) and 0.3 (2×) and 1.0 and 0.5
Pain score (0-to-10 VAS) during illumination, Mean ([1]; SIDE A (test PDT), 60 min test PDT cohort): 0.0 (5×) and 0.8 (2×) and 0.2
Pain score (0-to-10 VAS) during illumination ([1]; SIDE B (control PDT), 5 min during illumination, 30 min test PDT cohort): 2 and 10 (2×) and 4 and 5 and 3
Pain score (0-to-10 VAS) during illumination ([1]; SIDE B (control PDT), 5 min during illumination, 45 min test PDT cohort): 8 and 4 (3×) and 3 and 2 and 5 and 1
Pain score (0-to-10 VAS) during illumination ([1]; SIDE B (control PDT), 5 min during illumination, 60 min test PDT cohort): 1
Pain score (0-to-10 VAS) during illumination ([1]; SIDE B (control PDT), 10 min during illumination, 30 min test PDT cohort): 1 and 7 and 5 and 4 and 3 (2×)
Pain score (0-to-10 VAS) during illumination ([1]; SIDE B (control PDT), 10 min during illumination, 45 min test PDT cohort): 3 (3×) and 2 and 4 and 5 (2×) and 1
Pain score (0-to-10 VAS) during illumination ([1]; SIDE B (control PDT), 10 min during illumination, 60 min test PDT cohort): 1
Pain score (0-to-10 VAS) during illumination ([1]; SIDE B (control PDT), 15 min during illumination, 30 min test PDT cohort): 0 and 5 and 6 and 4 and 1 and 3
Pain score (0-to-10 VAS) during illumination ([1]; SIDE B (control PDT), 15 min during illumination, 45 min test PDT cohort): 0 and 2 (3×) and 1 and 3 and 4 and 5
Pain score (0-to-10 VAS) during illumination ([1]; SIDE B (control PDT), 15 min during illumination, 60 min test PDT cohort): 0
Pain score (0-to-10 VAS) during illumination, Mean ([1]; SIDE B (control PDT), 30 min test PDT cohort): 1.0 and 7.3 and 7.0 and 4.0 and 3.0 (2×) and 4.7
Pain score (0-to-10 VAS) during illumination, Mean ([1]; SIDE B (control PDT), 45 min test PDT cohort): 3.7 (2×) and 3.0 and 2.7 and 1.7 and 4.3 and 5.0 and 1.3
Pain score (0-to-10 VAS) during illumination, Mean ([1]; SIDE B (control PDT), 60 min test PDT cohort): 0.7 and 6.3 and 4.3 and 1.0 and 3.7 (2×) and 6.7 and 0.3
Mean VAS pain score during illumination ([1]; Side A (test PDT)): 0.52
Mean VAS pain score during illumination ([1]; Side B (control PDT)): 3.57
Pain during illumination, test PDT side versus control side ([1]; substantially no pre-illumination gap versus 1 hour gap): drastically reduced
Bleeding ([2]; DAY 1): 0, 0 percentage of patients
Blisters ([2]; DAY 1): 13, 13 percentage of patients
Burning ([2]; DAY 1): 65, 65 percentage of patients
Crusting ([2]; DAY 1): 9 percentage of patients
Itching ([2]; DAY 1): 43, 43 percentage of patients
Open sores ([2]; DAY 1): 0, 0 percentage of patients
Peeling ([2]; DAY 1): 4 percentage of patients
Redness ([2]; DAY 1): 91, 91 percentage of patients
Stinging ([2]; DAY 1): 65, 65 percentage of patients
Swelling ([2]; DAY 1): 26 percentage of patients
Pain Score Mean (0-10 visual-analog scale) ([2]; DAY 1): 3.0
Bleeding ([2]; DAY 2): 17 percentage of patients
Blisters ([2]; DAY 2): 4 percentage of patients
Burning ([2]; DAY 2): 52, 52 percentage of patients
Crusting ([2]; DAY 2): 9 percentage of patients
Itching ([2]; DAY 2): 74, 74 percentage of patients
Open sores ([2]; DAY 2): 9, 9 percentage of patients
Peeling ([2]; DAY 2): 4 percentage of patients
Redness ([2]; DAY 2): 100, 100 percentage of patients
Stinging ([2]; DAY 2): 70, 70 percentage of patients
Swelling ([2]; DAY 2): 26, 26 percentage of patients
Pain Score Mean (0-10 visual-analog scale) ([2]; DAY 2): 2.5
Bleeding ([2]; DAY 3): 13 percentage of patients
Blisters ([2]; DAY 3): 17 percentage of patients
Burning ([2]; DAY 3): 35, 35 percentage of patients
Crusting ([2]; DAY 3): 30 percentage of patients
Itching ([2]; DAY 3): 70 percentage of patients
Open sores ([2]; DAY 3): 9, 9 percentage of patients
Peeling ([2]; DAY 3): 22 percentage of patients
Redness ([2]; DAY 3): 91 percentage of patients
Stinging ([2]; DAY 3): 39, 39 percentage of patients
Swelling ([2]; DAY 3): 9 percentage of patients
Pain Score Mean (0-10 visual-analog scale) ([2]; DAY 3): 1.6
Bleeding ([2]; DAY 4): 17 percentage of patients
Blisters ([2]; DAY 4): 4 percentage of patients
Burning ([2]; DAY 4): 26, 26 percentage of patients
Crusting ([2]; DAY 4): 35, 35 percentage of patients
Itching ([2]; DAY 4): 65, 65 percentage of patients
Open sores ([2]; DAY 4): 4, 4 percentage of patients
Peeling ([2]; DAY 4): 48 percentage of patients
Redness ([2]; DAY 4): 83 percentage of patients
Stinging ([2]; DAY 4): 35, 35 percentage of patients
